Source: patent US12116344B2, “Crystalline forms of a pharmaceutical compound” (Azafaros B.V., priority 2020, dated 2024)
Entries after “also recorded” stand apart in the source; their conditions may differ.

Legend:
Hexb (−/−) mice = test: Clinical signs in mice suffering from Sandhoff disease; type: in vivo; conditions: initial data
Protocol: Mice suffering from Sandhoff disease were administered a therapeutically effective amount of AZ-3102.

NPC (−/−) mice = test: Clinical signs and tremor score in the Niemann-Pick type C mouse model; type: in vivo; conditions: for Overall clinical signs: scores PND 56-70
Protocol: Out of the 38 mice to be included in this study, there were 30 NPC (−/−) knock-out (KO) mice, 4 NPC (+/−) heterozygous mice and 4 NPC (+/+) wild-type (WT, Balb/c) mice. NPC1(−/−) mice have a premature truncation of the protein deleting 11 out of 13 transmembrane domains leaving the first two transmembrane domains intact. NPC1(−/−) mice homozygous for the recessive NIH allele of the Niemann Pick type C1 gene (Npc1 ml N) show a dual deficiency of sphingomyelinase and glucocerebrosidase activity (JAX #003092). Animals were bred on a BALB/c OlaHsd background.
(§1) 24 NPC1 (−/−) mice (groups D to I) were treated per oral gavage (10 mL/kg) with AZ-3102-00 from post-natal day 11 (P11) to post-natal-day 70 (P70). Dosing will start at 1.5 mg/kg from P11 to P25, followed by 3 mg/kg from P26 to P70. Control mice included 6 NPC1 (−/−) and 4 NPC (+/−) mice treated with vehicle and 4 NPC (+/+) mice received AZ-3102-00 (groups A to C).
Definitions of Clinical Scores and Humane Endpoints Clinical Signs were monitored on a daily basis starting at P45 until the end of the study (according to the template shown in FIG. 18). The parameters “weight loss”, “general health”, “clinical findings” and “line specific findings” were recorded and rated according to a score scale. The sum of this score was used for evaluation.
Pink (=light grey) bars represent the appearance and duration of a high level of tremor (sore of 5); whereas the green (=dark grey) bars represent the appearance and duration of a slight or moderate tremor. […] Possible tremor scores: 0: no tremor1: Slight incoordination, slight-moderate tremor; 5: High level of Tremor, uncoordinated movement; 10: Reduced righting reflex (no animal achieved this score).

[1] = Body weight of NPC mice, PND 11 to Week 9; type: in vivo
Protocol: Body weights and health status were recorded daily for the first week and later once a week.
as §1
Graph represents the progress of body weights [g] per group measured daily during the first treatment week and weekly thereafter.

[2] = Stability of the crystalline form (transition of Form 2 into Form 3); type: physicochemical; conditions: Form 2 transitions into Form 3 above around 30° C. in about 1-5 min, or in solvent for more than 5 min at around 25° C.; listed as Form 3
Protocol: Alternatively, Form 2 transitioned into Form 3 upon equilibration in solvent (e.g. acetone) for more than 5 min at around 25° C.

[3] = Stability of the test item in vehicle (acidified water); type: physicochemical; conditions: for Stability in the vehicle: 0.01 to 2 mg/mL
[4] = target: T1, non-lysosomal glucosylcerebrosidase (GbA2) (Homo sapiens, UniProt Q9HCG7); conditions: stated in words only, no test described; cited from earlier work
T1 sequence (Q9HCG7 1-927): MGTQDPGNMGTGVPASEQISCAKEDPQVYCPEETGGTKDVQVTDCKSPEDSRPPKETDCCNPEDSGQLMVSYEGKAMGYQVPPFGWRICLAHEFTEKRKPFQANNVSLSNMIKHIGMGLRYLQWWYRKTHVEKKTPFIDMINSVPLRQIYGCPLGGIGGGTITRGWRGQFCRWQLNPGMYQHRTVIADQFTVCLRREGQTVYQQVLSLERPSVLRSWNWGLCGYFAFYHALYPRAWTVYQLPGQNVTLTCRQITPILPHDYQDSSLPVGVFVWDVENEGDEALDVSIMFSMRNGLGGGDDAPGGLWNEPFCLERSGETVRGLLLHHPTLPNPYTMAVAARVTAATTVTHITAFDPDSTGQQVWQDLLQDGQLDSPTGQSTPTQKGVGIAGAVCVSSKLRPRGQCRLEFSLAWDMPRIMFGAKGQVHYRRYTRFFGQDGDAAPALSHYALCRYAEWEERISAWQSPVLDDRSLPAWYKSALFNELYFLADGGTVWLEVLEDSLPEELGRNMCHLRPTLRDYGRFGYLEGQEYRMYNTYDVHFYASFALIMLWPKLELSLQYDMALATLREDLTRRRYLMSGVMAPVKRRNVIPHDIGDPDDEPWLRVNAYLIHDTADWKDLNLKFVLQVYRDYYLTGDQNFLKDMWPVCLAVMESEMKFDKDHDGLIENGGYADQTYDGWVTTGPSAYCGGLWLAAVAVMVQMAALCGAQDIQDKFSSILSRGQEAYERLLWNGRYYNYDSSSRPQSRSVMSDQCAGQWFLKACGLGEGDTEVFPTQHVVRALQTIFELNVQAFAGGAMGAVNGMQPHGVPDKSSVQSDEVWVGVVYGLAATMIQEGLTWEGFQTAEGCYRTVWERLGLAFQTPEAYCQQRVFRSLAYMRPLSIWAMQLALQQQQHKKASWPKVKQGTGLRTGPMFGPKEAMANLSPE

[5] = Dynamic vapour sorption (DVS), hygroscopicity; type: physicochemical; conditions: listed as Form 3
Protocol: Dynamic vapour sorption (DVS) measurements were performed with an SPS11-100n “Sorptions Prüfsystem” from ProUmid (formerly “Projekt Messtechnik”), August-Nagel-Str. 23, 89079 Ulm (Germany). About 5 mg to 20 mg of sample was put into an aluminum sample pan. Humidity change rates of 5% per hour were used. The applied measurement program can be described as follows:
The sample was placed on an aluminium or platinum holder on top of a microbalance and allowed to equilibrate at a relative humidity (RH) of 50% before starting the pre-defined humidity programs: • (1) 2 h at 50% RH • (2) 50→0% RH (5%/h); 5 h at 0% RH • (3) 0→95% RH (5%/h); 5 h at 95% RH • (4) 95→0% RH (5%/h); 5 h at 0% RH • (5) 0→95% RH (5%/h); 5 h at 95% RH • (6) 95→50% RH (5%/h); 2 h at 50% RH

With OC[C@H]1[C@@H](O)[C@H](O)[C@@H](O)CN1CCCCCOCc1ccc(-c2ccccc2)c(F)c1 [AZ-3102] the “Clinical signs of diseased animals” value (Hexb (−/−) mice) was “improved”, the “Mice with a high level of tremor (score of 5)” value (NPC (−/−) mice; NPC (−/−) mice treated P11-P70, observed PND 56-70, vehicle group 4 out of 5) was 1 out of 24 and the “Initiation, duration and strength of tremor” value (NPC (−/−) mice; NPC (−/−) mice, treated versus vehicle, PND 56-70) was “diminished”. For the same compound, the Overall clinical signs (NPC (−/−) mice; NPC (−/−) mice, treated versus vehicle) was “improved clinical signs”, the Overall clinical signs (NPC (−/−) mice; NPC (−/−) mice, treated versus vehicle, listed as Form 3) was “improve the clinical signs” and the “Body weight gain of treated NPC (−/−) mice versus untreated NPC (−/−) mice” value ([1]; both genders, daily oral gavage P11-P70, PND 11 to Week 9) was “gained more than the NPC (−/−) untreated animals”. The “General health as indicated by average percent body weight gains” value ([1]; daily oral gavage P11-P70, 1.5 mg/kg (P11-P25) then 3 mg/kg (P26-P70)) was “not impeded”, the “Stability of the crystalline form” value [2] was “better stability” and the “Stability in the vehicle” value ([3]; freezer (≤−15° C.)) was “at least 3 weeks”. The “Stability in the vehicle” value ([3]; refrigerated (2-8° C.)) was “at least 8 days”, the “Stability in the vehicle” value ([3]; room temperature protected from light) was “at least 24 hours” and the Stability in vehicle ([3]; under nitrogen at room temperature protected from light) was “light for at least 24 h, stored under nitrogen”. For the same compound, the Stability in vehicle ([3]; under nitrogen frozen in a freezer (≤−15° C.)) was “for at least 21 days (3 weeks)”, the “Potency as inhibitor of GbA2” value [4] was “highly potent (nM)” and the “Hygroscopicity (description)” value [5] was “non-hygroscopic or substantially non-hygroscopic; also recorded: substantially non-hygroscopic”.
